Measurements reported in the NIST ThermoML archive (doi:10.1021/je901020a).

Key:
[1] = xn = mol fraction of the nth substance listed; details: 101 kPa, Liquid; for speed of sound: Pulse-echo method
[2] = refractive index (Na D-line) (dimensionless); xn = mol fraction of the nth substance listed; details: 101 kPa, Liquid, Standard Abbe refractometry

C1CCCCCCC1 [cyclooctane] + Cc1cc(C)cc(C)c1
Details	mass density, [1] [kg/m3]	refractive index, [2]	speed of sound, [1] [m/s]
298.15 K, x1 = 0.0496	858.9	1.49453	1338
298.15 K, x1 = 0.1026	856.8	1.49198	1339
298.15 K, x1 = 0.2035	852.7	1.48725	1341
298.15 K, x1 = 0.307	848.8	1.48253	1345
298.15 K, x1 = 0.4062	845.2	1.47807	1349
298.15 K, x1 = 0.5042	841.9	1.47384	1354
298.15 K, x1 = 0.598	839	1.46995	1359
298.15 K, x1 = 0.696	836.2	1.46606	1366
298.15 K, x1 = 0.8308	833.3	1.46115	1376
298.15 K, x1 = 0.8926	832.3	1.45905	1381
298.15 K, x1 = 0.9484	831.7	1.45738	1386
298.15 K, x1 = 1	831.5	1.45598	1391
313.15 K, x1 = 0.0517	846.6	1.48694	1277
313.15 K, x1 = 0.0872	845.2	1.48532	1278
313.15 K, x1 = 0.1842	841.3	1.48082	1280
313.15 K, x1 = 0.2935	837.2	1.4759	1283
313.15 K, x1 = 0.3891	833.8	1.47166	1287
313.15 K, x1 = 0.4882	830.4	1.46743	1291
313.15 K, x1 = 0.5857	827.5	1.4634	1296
313.15 K, x1 = 0.6847	824.6	1.45952	1302
313.15 K, x1 = 0.791	822.1	1.45559	1309
313.15 K, x1 = 0.8911	820.3	1.45214	1317
313.15 K, x1 = 0.939	819.7	1.45053	1321
313.15 K, x1 = 1	819.2	1.44877	1325

C1CCCC1 [cyclopentane] + Cc1cccc(C)c1
Details	mass density, [1] [kg/m3]	refractive index, [2]	speed of sound, [1] [m/s]
298.15 K, x1 = 0.0391	856.1	1.49183	1315
298.15 K, x1 = 0.0908	851.1	1.48818	1308
298.15 K, x1 = 0.1894	841.2	1.48065	1296
298.15 K, x1 = 0.2859	831.2	1.47341	1284
298.15 K, x1 = 0.3868	820.1	1.46504	1272
298.15 K, x1 = 0.4808	809.2	1.45745	1260
298.15 K, x1 = 0.6394	789.8	1.44242	1241
298.15 K, x1 = 0.6923	782.9	1.43668	1235
298.15 K, x1 = 0.7909	769.7	1.42686	1224
298.15 K, x1 = 0.8952	755	1.41504	1214
298.15 K, x1 = 0.9514	746.9	1.40888	1208
298.15 K, x1 = 1	740	1.40292	1204
313.15 K, x1 = 0.0431	842.9	1.48387	1253
313.15 K, x1 = 0.0812	839.2	1.48096	1248
313.15 K, x1 = 0.1859	828.6	1.47303	1234
313.15 K, x1 = 0.2864	818	1.46521	1220
313.15 K, x1 = 0.3348	812.6	1.46128	1213
313.15 K, x1 = 0.4741	796.4	1.44893	1194
313.15 K, x1 = 0.5747	784.1	1.43989	1181
313.15 K, x1 = 0.6933	768.8	1.42834	1166
313.15 K, x1 = 0.7932	755.2	1.4181	1153
313.15 K, x1 = 0.8961	740.5	1.4067	1141
313.15 K, x1 = 0.9472	733	1.40122	1135
313.15 K, x1 = 1	725	1.39456	1130

Cc1cc(C)cc(C)c1 [1,3,5-trimethylbenzene] + C1CCCCCCC1
x2 = 0
Details	mass density, [1] [kg/m3]	refractive index, [2]	speed of sound, [1] [m/s]
298.15 K	861.1	1.49693	1336
313.15 K	848.8	1.48923	1277

Cc1ccccc1C [1,2-dimethylbenzene] + C1CCCC1
x2 = 0
Details	mass density, [1] [kg/m3]	refractive index, [2]	speed of sound, [1] [m/s]
298.15 K	875.4	1.50262	1350
313.15 K	862.9	1.49466	1290

C1CCCCC1 [cyclohexane] + Cc1cc(C)cc(C)c1
x1 = 1
Details	mass density, [1] [kg/m3]	refractive index, [2]	speed of sound, [1] [m/s]
298.15 K	773.9	1.4236	1255
313.15 K	759.6	1.41516	1182

Cc1ccc(C)cc1 [1,4-dimethylbenzene] + C1CCCC1
x2 = 0
Details	mass density, [1] [kg/m3]	refractive index, [2]	speed of sound, [1] [m/s]
298.15 K	856.6	1.49312	1310
313.15 K	843.5	1.48444	1248

CC1CCCCC1 [methylcyclohexane] + Cc1cccc(C)c1
x1 = 1
Details	mass density, [1] [kg/m3]	refractive index, [2]	speed of sound, [1] [m/s]
298.15 K	765	1.42062	1215
313.15 K	751.9	1.41274	1150

C1CCCCCCC1 [cyclooctane] + Cc1cccc(C)c1
Details	mass density, [1] [kg/m3]	refractive index, [2]	speed of sound, [1] [m/s]
298.15 K, x1 = 0.0545	857.4	1.49186	1322
298.15 K, x1 = 0.0993	855.5	1.48961	1324
298.15 K, x1 = 0.2059	851.1	1.4845	1328
298.15 K, x1 = 0.3074	847.4	1.4799	1333
298.15 K, x1 = 0.3933	844.4	1.47623	1338
298.15 K, x1 = 0.5031	841	1.47176	1346
298.15 K, x1 = 0.6002	838.2	1.46806	1353
298.15 K, x1 = 0.6993	835.9	1.46461	1361
298.15 K, x1 = 0.8198	833.5	1.46072	1372
298.15 K, x1 = 0.8909	832.4	1.45869	1379
298.15 K, x1 = 0.9503	831.8	1.45714	1385
298.15 K, x1 = 1	831.5	1.45598	1391
313.15 K, x1 = 0.0506	844.7	1.48423	1260
313.15 K, x1 = 0.0888	843.1	1.48242	1262
313.15 K, x1 = 0.1861	839.3	1.47779	1265
313.15 K, x1 = 0.2924	835.4	1.47308	1270
313.15 K, x1 = 0.3795	832.4	1.46944	1275
313.15 K, x1 = 0.487	829.1	1.46522	1282
313.15 K, x1 = 0.5832	826.4	1.46159	1289
313.15 K, x1 = 0.6823	824	1.45808	1296
313.15 K, x1 = 0.7874	821.9	1.45469	1305
313.15 K, x1 = 0.8879	820.3	1.45169	1315
313.15 K, x1 = 0.9389	819.7	1.45047	1320
313.15 K, x1 = 1	819.2	1.44877	1326

C1CCCCCCC1 [cyclooctane] + Cc1ccc(C)cc1
Details	mass density, [1] [kg/m3]	refractive index, [2]	speed of sound, [1] [m/s]
298.15 K, x1 = 0.0534	854.3	1.49055	1312
298.15 K, x1 = 0.1004	852.6	1.4883	1314
298.15 K, x1 = 0.2025	848.8	1.48358	1319
298.15 K, x1 = 0.303	845.4	1.4792	1325
298.15 K, x1 = 0.402	842.4	1.47506	1332
298.15 K, x1 = 0.4986	839.6	1.47129	1339
298.15 K, x1 = 0.599	837.1	1.46764	1348
298.15 K, x1 = 0.6981	835	1.46424	1357
298.15 K, x1 = 0.7968	833.3	1.46119	1367
298.15 K, x1 = 0.8926	832	1.4585	1377
298.15 K, x1 = 0.9504	831.5	1.45707	1384
298.15 K, x1 = 1	831.5	1.45598	1391
313.15 K, x1 = 0.0485	841.6	1.48247	1250
313.15 K, x1 = 0.0874	840.2	1.48077	1252
313.15 K, x1 = 0.1848	836.7	1.47651	1256
313.15 K, x1 = 0.2948	833.2	1.472	1262
313.15 K, x1 = 0.3853	830.4	1.46825	1268
313.15 K, x1 = 0.4829	827.7	1.46454	1274
313.15 K, x1 = 0.5809	825.3	1.46094	1282
313.15 K, x1 = 0.6837	823.1	1.45755	1291
313.15 K, x1 = 0.7877	821.3	1.45432	1301
313.15 K, x1 = 0.8888	820	1.45148	1312
313.15 K, x1 = 0.9413	819.5	1.4501	1318
313.15 K, x1 = 1	819.2	1.44877	1325
